# Source: patent publication US10857170B1, “Molecules, compositions and methods for modulation of SIRT6” (SirTLab Corporation, priority 2015, dated 2020)
# Biological target: T1, Human recombinant SIRT6 (Homo sapiens, UniProt Q8N6T7)
# T1 construct: six-histidine (His6); made in house; host or cells: Escherichia coli BL21
# Assay: SIRT6 enzymatic activity assay (fluorogenic de-myristoylation of histone H3 peptide-AMC, trypsin-coupled)
# Type: biochemical
# Conditions: Table 2; compound 20 uM; percentage of signal increase relative to control wells
# Protocol: Human recombinant SIRT6 (sequence identifier: CAG33481.1; GI:4814651) was expressed in large scale in Escherichia coli strain BL21 as a six-histidine-tagged protein, after transformation of the expression plasmid pET28-SIRT6. The SIRT6 enzyme was purified from the bacteria culture broth in a two-step strategy. The first purification step was carried out by cation exchange chromatography on a HiTrap CM-Sepharose column (GE Healthcare) using an FPLC system. The second purification step was performed by immobilized metal ion affinity chromatography (IMAC) using a cobalt affinity column (Clontech).
# The enzymatic activity assay is carried out in 96 or 384-well microplates using the purified recombinant SIRT6 and a fluorophore-labeled peptide substrate: 7-amino-4-methylcoumarin (AMC) that is quenched through conjugation to the C-terminal end of a Lysin-myristoylated histone H3 peptide. The activity assay procedure requires two steps, both performed in the same microplate. In the first step, the substrate is incubated with the purified SIRT6 protein along with the co-substrate nicotinamide adenine dinucleotide (NAD+). Upon de-myristoylation, the liberated ε-amino group of the lysine becomes a trypsin substrate. Treatment with trypsin in the second step releases the fluorophore resulting in an increase in fluorescence. Fluorescence intensity is measured using a fluorescent plate reader (excitation and emission at 370 nm and 450 nm, respectively). The fluorescence signal is directly proportional to SIRT6 enzymatic activity.
# In the primary screening, compounds from a library (ChemDiv Inc.) were tested at a single concentration of 20 micromolar for their potential to modulate SIRT6 enzymatic activity. The assay was carried out in 384-well black well plates and all liquid handling was done using a robotic liquid handler. Purified recombinant SIRT6 (1 micromolar) was pre-incubated with each compound (or DMSO in control wells) for 15 minutes at room temperature. The first stage of the assay was initiated by adding a ‘substrate solution’ containing the myristoylated histone H3 peptide and NAD+(for final concentrations of 25 micromolar and 20 micromolar, respectively). After one hour incubation at 37° C., a Trypsin solution (6 mg/mL) was added for 30 minutes at room temperature. Fluorescence intensity was measured using a fluorescent plate reader (Tecan) with excitation at 370 nm and emission at 450 nm. The effect of each tested compound was evaluated by the change in the fluorescence intensity compared to control wells. […] To validate the primary screening results, each of the primary “hits” was re-tested, first at concentration of 20 micromolar in duplicates and later at a serial dilution ranging from 100 to 0.2 micromolar in triplicates.
# T1 sequence (Q8N6T7 whole entry): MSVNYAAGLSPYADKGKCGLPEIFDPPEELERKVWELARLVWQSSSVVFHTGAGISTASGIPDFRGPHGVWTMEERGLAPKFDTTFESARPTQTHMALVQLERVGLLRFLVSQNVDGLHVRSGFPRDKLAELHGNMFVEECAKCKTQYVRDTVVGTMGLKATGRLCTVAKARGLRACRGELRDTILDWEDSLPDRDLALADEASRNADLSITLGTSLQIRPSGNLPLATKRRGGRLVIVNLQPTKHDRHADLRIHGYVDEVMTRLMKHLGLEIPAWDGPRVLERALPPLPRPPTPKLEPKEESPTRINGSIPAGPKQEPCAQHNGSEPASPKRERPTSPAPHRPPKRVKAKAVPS
row,SMILES,% activity 20 uM
1,CCCC1(CO)CCCN1C(=O)c1ccc2cc[nH]c2c1 (stereo not shown) [compound 56],30%
2,N#Cc1cccc(-c2cn3c(n2)N(C(=O)c2ccncc2)CCC3)c1 [compound 57],37%
3,Cc1noc(-c2cccc(OC3CN(C(=O)c4cccc5[nH]ccc45)C3)c2)n1 [compound 58],38%
4,C=C(C)C1Cc2cc(C(F)(F)F)ccc2N2CCCCC12 (stereo not shown) [compound 59],89%
5,Cc1nc(-c2cccc(C(F)(F)F)c2)c(N)c(N(C)C2CCN(C)CC2)n1 [compound 60],52%
6,Cc1nc(-c2cccc(F)c2)c(N)c(N(C)C2CCN(C)CC2)n1 [compound 61],50%
7,C=C1Cc2cc(C)cc(CC(=O)[C@@H](NS(=C)(=C)c3ccc(C)cc3)[C@H](C)CC)c2C2=C1CCC2 [compound 62],28%

# Same assay, conditions: Table 2; compound 100 uM; percentage of signal increase relative to control wells
row,SMILES,% activity 100 uM
1,CCCC1(CO)CCCN1C(=O)c1ccc2cc[nH]c2c1 (stereo not shown) [compound 56],53%
2,N#Cc1cccc(-c2cn3c(n2)N(C(=O)c2ccncc2)CCC3)c1 [compound 57],45%
3,Cc1noc(-c2cccc(OC3CN(C(=O)c4cccc5[nH]ccc45)C3)c2)n1 [compound 58],47%
4,C=C(C)C1Cc2cc(C(F)(F)F)ccc2N2CCCCC12 (stereo not shown) [compound 59],175%
5,Cc1nc(-c2cccc(C(F)(F)F)c2)c(N)c(N(C)C2CCN(C)CC2)n1 [compound 60],255%
6,Cc1nc(-c2cccc(F)c2)c(N)c(N(C)C2CCN(C)CC2)n1 [compound 61],210%
7,C=C1Cc2cc(C)cc(CC(=O)[C@@H](NS(=C)(=C)c3ccc(C)cc3)[C@H](C)CC)c2C2=C1CCC2 [compound 62],113%

# Same assay, conditions: Table 3; compound 20 micromolar
row,SMILES,% activity (20 micromolar only)
1,O=C(NCc1ccc2c(c1)CCC2)c1ccc(NC(=O)C2CC2)cc1N1CCCCCC1 [compound 63],38%
2,CCn1c2ccccc2c2nnc(N3CCN(c4cccc(C(F)(F)F)c4)CC3)nc21 [compound 64],85%
